In one experiment the target is rat brain TSPO (Rattus norvegicus, UniProt P16257). The class given is binding. To be noted: for LipE: pKi (rat) minus clogD.
For another experiment, the system named is TSPO in rat brain cortex. Conditions: read-out: IC50, inhibition of [3H]1; cited from earlier work.
The target of the next experiment is human leukocyte LAB TSPO (Homo sapiens, UniProt P30536). Kind of experiment: Ligand binding affinity to human leukocyte LAB TSPO.
The target in another experiment is human leukocyte HAB TSPO (Homo sapiens, UniProt P30536, T147A). Kind of experiment: Ligand binding affinity to human leukocyte HAB TSPO.
human leukocyte HAB TSPO, sequence (P30536 whole entry T147A): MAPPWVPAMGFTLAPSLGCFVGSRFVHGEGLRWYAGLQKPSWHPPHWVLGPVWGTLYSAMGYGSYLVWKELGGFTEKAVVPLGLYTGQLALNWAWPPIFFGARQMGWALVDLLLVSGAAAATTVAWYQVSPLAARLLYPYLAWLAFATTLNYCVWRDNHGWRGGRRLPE
Experiment [1] relates to human leukocyte HAB and LAB TSPO. The experiment can be described thus: Human TSPO genotype sensitivity, Ki in LAB versus HAB leukocytes. Type of experiment: binding. To be noted: for (LAB Ki)/(HAB Ki): genotype sensitivity, ratio of Ki; for genotype sensitivity in words: LAB versus HAB TSPO.

The text below walks through data of article PMC4216211 (Journal of Medicinal Chemistry, 2014).

Molecules are shown by their SMILES.

human leukocyte LAB TSPO, sequence (P30536 whole entry): as the sequence (P30536 whole entry T147A) above, with A147T counted along it
rat brain TSPO, sequence (P16257 whole entry): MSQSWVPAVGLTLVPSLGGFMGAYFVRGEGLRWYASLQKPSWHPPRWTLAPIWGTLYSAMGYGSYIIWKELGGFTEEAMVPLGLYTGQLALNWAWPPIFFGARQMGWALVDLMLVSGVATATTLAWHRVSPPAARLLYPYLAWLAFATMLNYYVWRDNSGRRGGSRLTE

Consider `CCN(CC)C(=O)C(C)Cc1cc(-c2ccccc2)nc2ccccc12` (stereo not shown) [10a, N,N-Diethyl-2-methyl-3-(2-phenylquinolin-4-yl)propanamide], for which, on rat brain TSPO, the Ki (as a rule, the equilibrium dissociation constant of an inhibitor or competing ligand from its target) came out at 2.1 ± 0.6 nM and the LipE is on record as 4.4 ± 0.1. Besides, the half-inhibitory concentration (IC50) – broadly, the point on the concentration scale where inhibition reaches its midpoint – in the experiment on TSPO in rat brain cortex was 13.7 nM.

`CC(Oc1ccnc(-c2ccccc2)c1)C(=O)N(C)c1ccccc1` (stereo not shown) [15c, N-methyl-N-phenyl-2-[(2-phenylpyridin-4-yl)oxy]propanamide]: on rat brain TSPO, the Ki was found to be 3.3 ± 0.6 nM, the “rat TSPO affinity in words” value was “low nanomolar range” and the LipE is recorded as 5.3 ± 0.3. The affinity on human leukocyte LAB TSPO, expressed as Ki, was 62 ± 11 nM. Also, at human leukocyte HAB TSPO, the “HAB binding affinity in words” value is recorded as “low nanomolar” and the inhibitory constant (Ki) amounted to 2 ± 0.6 nM. The “(LAB Ki)/(HAB Ki)” value in experiment [1] turned out to be 31 ± 11.

Regarding `CC(Oc1cc(-c2ccccn2)nc2ccccc12)C(=O)N(C)c1ccccc1` (stereo not shown) [22a, N-Methyl-N-phenyl-2-{[2-(pyridin-2-yl)quinolin-4-yl]oxy}propanamide], the Ki at rat brain TSPO is 0.1 ± 0.05 nM; at human leukocyte LAB TSPO, 1.4 ± 0.5 nM; at human leukocyte HAB TSPO, 1.4 ± 0.2 nM; in experiment [1] (read-out: human TSPO genotypes Ki, abstract, one value for the human genotypes), 1.4 nM. Moreover, the LipE on rat brain TSPO is 5.9 ± 0.2. The “genotype sensitivity in words” value in experiment [1] is listed as “insensitive”. For the same molecule, in experiment [1], the “(LAB Ki)/(HAB Ki)” value is reported as 1.0 ± 0.4.

For the molecule `CC(Oc1cc(-c2cccnc2)nc2ccccc12)C(=O)N(C)c1ccccc1` (stereo not shown) [22b, N-methyl-N-phenyl-2-{[2-(pyridin-3-yl)quinolin-4-yl]oxy}propanamide], at rat brain TSPO, the Ki came to 0.2 ± 0.03 nM, the “rat TSPO affinity in words” value is listed as “subnanomolar” and the LipE stood at 5.6 ± 0.1. At human leukocyte LAB TSPO, this molecule yielded a Ki of 12 ± 3 nM. The same molecule yielded an inhibitory constant (Ki) on human leukocyte HAB TSPO of 0.9 ± 0.09 nM. Moreover, the “(LAB Ki)/(HAB Ki)” value in experiment [1] was determined as 13 ± 4.

At rat brain TSPO, `CC(Oc1cc(-c2ccncc2)nc2ccccc12)C(=O)N(C)c1ccccc1` (stereo not shown) [22c, N-methyl-N-phenyl-2-{[2-(pyridin-4-yl)quinolin-4-yl]oxy}propanamide] gave an inhibition constant (Ki) of 0.22 ± 0.02 nM and a LipE of 5.60 ± 0.04. At human leukocyte LAB TSPO, this molecule registered a Ki of 7 ± 3 nM. Further, at human leukocyte HAB TSPO, the inhibition constant (Ki) was found to be 1 ± 0.5 nM. In addition, in experiment [1], the “genotype sensitivity in words” value was “much less sensitive” and the “(LAB Ki)/(HAB Ki)” value turned out to be 7 ± 5.

On rat brain TSPO, `CCN(CC)C(=O)[C@H](C)Cc1cc(-c2ccccc2)nc2ccccc12` [(R)-10a, (R)-N,N-Diethyl-2-methyl-3-(2-phenylquinolin-4-yl)propanamide] yielded an inhibition constant Ki of 0.9 ± 0.09 nM and a LipE of 4.72 ± 0.04. In addition, the affinity on human leukocyte LAB TSPO, expressed as Ki, was 743 ± 190 nM. Also, on human leukocyte HAB TSPO, the affinity, expressed as Ki, was 10 ± 2 nM and the “fold lower affinity to HAB TSPO than to rat TSPO” value is “about 10 -fold”. Also, in experiment [1], the “fold lower affinity for LAB TSPO than for HAB TSPO” value was “about 76 -fold” and the “(LAB Ki)/(HAB Ki)” value was determined as 76 ± 27.

In the case of `CC(Sc1cc(-c2ccccc2)nc2ccccc12)C(=O)N(C)c1ccccc1` (stereo not shown) [compound 12, N-Methyl-N-phenyl-2-[(2-phenylquinolin-4-yl)sulfanyl]propanamide], the inhibition constant Ki at rat brain TSPO stood at 0.39 ± 0.04 nM; on human leukocyte LAB TSPO it was 26 ± 5 nM; at human leukocyte HAB TSPO it was 2.5 ± 0.6 nM. The LipE at rat brain TSPO is 4.10 ± 0.05. In addition, the “(LAB Ki)/(HAB Ki)” value in experiment [1] is given as 10 ± 3.

As for `CC(Nc1cc(-c2ccccc2)nc2ccccc12)C(=O)N(C)c1ccccc1` (stereo not shown) [compound 14, N-Methyl-N-phenyl-2-[(2-phenylquinolin-4-yl)amino]propanamide], the results for the Ki at rat brain TSPO, at human leukocyte LAB TSPO and on human leukocyte HAB TSPO were 0.19 ± 0.01 nM, 4 ± 1 nM and 0.44 ± 0.08 nM, respectively. Moreover, the LipE at rat brain TSPO was 5.62 ± 0.03. For the same molecule, the “(LAB Ki)/(HAB Ki)” value in experiment [1] was 9 ± 3.
